According to patent publication US10139420B2, “Methods for treating vaso-occlusive crisis using non-modified annexin V” (ISNERM (Institut National de la Sante et de la Recherche …, priority 2011, dated 2018):
“Also recorded” adds a separate entry of the source.

How the values were obtained:
SAD mice = experiment: Circulating PS+ MP in platelet-free plasma by FACS (annexin-V labeling), SAD mice; format: in vivo, mouse; details: injected to mice, compared with whole TSP1
Protocol: We characterized the induction of VOC in SAD transgenic mice (18, 19) according to our previously published method, in response to the intravenous administration of TSP1 (1 mg/kg), TSP1-derived peptides 4N1-1 or 4N1-2, or purified erythrocyte MP. Briefly, mice were anesthetized with isoflurane and monitored to prevent any cardiorespiratory depression. Mice were shaved and placed in the decubitus position on a heating blanket (38° C.). We used a Vivid 7 echograph (GE Medical Systems®, Horten, Norway) equipped with a 12-MHz linear transducer (12 L). […] A pulsed Doppler spectrum was recorded and peak systolic, end-diastolic and time-average mean BFV were measured in the renal artery, with Doppler beam angle correction. To calculate cardiac output, spatial flow profiles were analyzed in parasternal long-axis B-mode images of the pulmonary artery and BFV were measured as above. […] Circulating MP were quantified by FACS.
Netherlands) in the absence or presence of TSP1 (25 μg/ml), or TSP1-derived peptides 4N1-1 or 4N1-2 (25 μM). […] Erythrocytes were immediately separated and supernatant PS^+ MP quantified by FACS. […] MP concentrations were determined as previously described (20). […] MP were analyzed on a Coulter EPICS XL flow cytometer (Beckman Coulter). […] MP-size events were analyzed in FL/FSC fluorescence dot plots to determine annexin-V labeling. […]

[1] = tested on: wild type mouse erythrocytes; experiment: Echinocyte conversion and MP shedding by isolated erythrocytes (LORCA ektacytometer, microscopy, FACS), wild type; format: cell-based; details: for increase in MP shedding in wild type erythrocytes: peptides 25 μM, versus control peptides
Protocol: (§1) Mouse blood was obtained through retro-orbital sinus puncture, mixed with anti-coagulant heparin buffer (5 UI/ml), and collected on citrated tubes. Blood diluted 1:1 with PBS (Gibco-Life Sciences) was placed onto histopaque-1083 (Sigma) density gradients for centrifugation (600 g, 25 minutes). Erythrocyte pellets were resuspended, washed in DMEM and stored for up to 4 hours at room temperature. Erythrocyte surface CD47 expression was assessed by FACS. Fresh RBC were washed and blocked with PBS-BSA 5% for 30 min and immunoreacted with mouse-specific fluoroisothiocyanate (FITC)-coupled anti-CD47 monoclonal antibody (clone mIAP301; BD Biosciences, Le Pont de Claix, France), or matched irrelevant IgG2aκ isotype for 45 min in 2% PBS-BSA. Erythrocytes were washed in PBS-BSA 2% prior to FACS analysis. Erythrocyte phenotypes were analyzed by […] electronic microscopy. Briefly, mouse erythrocytes were fixed with glutaraldehyde 1% and paraformaldehyde 4%, dehydrated and embedded in Epon™ epoxy resin. Sections contrasted with uranyl acetate and lead citrate were examined with a JEOL JEM 1010 microscope. Average apparent spicule number was determined by direct counting in 80 to 120 cells per condition.
(§2) To trigger MP shedding, erythrocyte were suspended in polyvinylpyrrolidone (31 mPa.s) and placed in a rotating type LORCA ektacytometer (R&R Mechatronics, Hoorn, The
(§3) Netherlands) in the absence or presence of TSP1 (25 μg/ml), or TSP1-derived peptides 4N1-1 or 4N1-2 (25 μM). Shear rate was applied according to the builder's program (1500 s^−1; 2.5 minutes). Erythrocytes were immediately separated and supernatant PS^+ MP quantified by FACS. Concentrated MP stocks were generated from 10 to 20 ml of supernatant from erythrocytes suspended in RPMI-1640 (4.10^6/ml) and treated with 4N1-1. Suspensions were centrifuged at 400 g for 15 min to discard cells, and ultracentrifuged at 20500 g for 45 min to pellet MP, which were resuspended in filtered (0.2 μm) DMEM and stored at −80° C. MP concentrations were determined as previously described (20). Briefly, MP were labeled with 2 μl FITC-conjugated annexin-V (Roche Diagnostics, France) diluted in 100 μl reaction buffer with 5 mM CaCl2. CaCl2 was omitted in negative controls. MP were analyzed on a Coulter EPICS XL flow cytometer (Beckman Coulter). MP were identified in forward light scatter (FSc) and side-angle light scatter (SSc) intensity dot plots set at logarithmic gain, as events of 0.1-1 μm in diameter. MP-size events were analyzed in FL/FSC fluorescence dot plots to determine annexin-V labeling. MP concentration was determined with respect to calibrated fluorescent microbeads (Flowcount). To determine erythrocyte origin, MP were double labeled with rat PE-Cy7-coupled mouse-specific anti-Ter119 antibody (Biolegend via Ozyme, France), or matched irrelevant IgG2bκ isotype.

SAD mouse erythrocytes = experiment: Echinocyte conversion and MP shedding by isolated erythrocytes (LORCA ektacytometer, microscopy, FACS), SAD; format: cell-based; details: for raise in MP shedding in SAD erythrocytes: peptides 25 μM, versus control peptides
Protocol: as §1, §2, §3

[2] = tested on: SV40-transformed mouse lymph node endothelial cells (SVEC4-10); experiment: Endothelial ROS production (H2DFF-DA assay); format: cell-based
Protocol: SV40-transformed mouse lymph node endothelial cells (SVEC4-10 from ATCC) were obtained from LGC Promochem, France and grown in Dulbecco's Modified Eagle Medium (DMEM) supplemented with 20% neonatal calf serum (NCS; Dominique Dutscher) in 24 well plaques at 37° C. with 5% CO2. Confluent SVEC monolayers in 96 well plates were incubated with 25 MP/μl for up to 2 h. To determine ROS production, 5-(6-)Carboxy-2′,7′-difluorodihydrofluorescein diacetate (H2DFF-DA; 10 μM), was supplemented to the medium for the last 30 minutes, and fluorescence was read in an automated fluorescence plate reader. For erythrocyte adhesion experiments, MP-primed SVEC monolayers were washed and incubated with RBC suspensions in DMEM (1.10^6 RBC/ml). Supernatant cells were discarded after 30 min, and adherent cells were counted by phase contrast microscopy in 5 random fields per well (400×). All conditions were tested 3 to 6 times, in triplicates. In cell cycle analysis, SVEC were cultured up to 70% confluency, washed and placed in DMEM with 0.05% NCS with or without RBC MP. After 16 hours, SVEC were trypsinized, fixed overnight in ice-cold 70% ethanol-H20, and incubated in 0.05% Triton X100, 100 μg/ml RNase A plus 50 μg/ml propidium iodide for 1 h in the dark. Total DNA content was determined by FACS. DNA profiles were divided as sub-G1 (apoptosis), G0/G1 (resting) and G2/M (proliferation) phases of the cell cycle. Data shown is the mean percentage of cells in each phase, in 3 to 6 independent experiments.

Mesenteric arteries = experiment: Microvascular dilation of perfused mesenteric resistance arteries (pressure myograph); set-up: species or system mouse
Protocol: Mesenteric arteries were removed from terminally anesthetized mice and placed them in ice-cold physiological salt solution (PSS). 4-6 arterial segments from each mouse were used. A segment of mesenteric artery was cannulated and mounted in a video-monitored perfusion system as described (21). Arterial segments were bathed in a 5 ml organ bath containing a PSS maintained at pH 7.4, with pO2 and pCO2 of 160 mm Hg and 37 mm Hg, respectively. Arterial diameter was continuously recorded by video (Living System Instrumentation Inc., Burlington, Vt.). Pressure and flow rates could be changed independently. Diameter changes were measured in each segment when the intraluminal pressure was set at 75 mm Hg in order to measure dilation. Artery viability was tested with potassium-rich solution ([…]; PSS). The endothelium was considered functional when 80% relaxation was obtained with 10^−6 acetylcholine (ACH), after phenylephrine (PE)-induced preconstriction (50% of maximal contraction with KCl 80 mM). A cumulative concentration-response curve to ACH (10^−7-10^−4 M) was constructed after preconstriction. Sodium nitroprusside (SNP, 100 μM) was tested after the ACH curve. Intraluminal flow was then increased to 21 μl/minute and MP were injected in the vessel. A new cumulative concentration-response curve to ACH after was constructed after new PE-induced preconstriction. […]

SAD transgenic mice = experiment: Vaso-occlusive crises in mice: renal artery blood flow velocity by Echo-Doppler, cardiac output, renal histology; format: in vivo, mouse; details: SAD RBC MP pre-incubated with annexin-V and washed, 300.10^3 MP/mouse
Protocol: We characterized the induction of VOC in SAD transgenic mice (18, 19) according to our previously published method, in response to the intravenous administration of TSP1 (1 mg/kg), TSP1-derived peptides 4N1-1 or 4N1-2, or purified erythrocyte MP. Briefly, mice were anesthetized with isoflurane and monitored to prevent any cardiorespiratory depression. Mice were shaved and placed in the decubitus position on a heating blanket (38° C.). We used a Vivid 7 echograph (GE Medical Systems®, Horten, Norway) equipped with a 12-MHz linear transducer (12 L). The ultrasound probe was placed on the left side of the abdomen for examination of renal arteries, or in left lateral decubitus for cardiac output acquisition with transducer on the chest. Data were transferred on-line to an EchoPAC ultrasound image analysis workstation (GE Medical Systems®). Two-Dimensional ultrasound imaging of the abdomen in left-sided longitudinal B-mode allowed kidney width and height measurements. Color-coded blood flow detection by Doppler enabled renal arteries to be localized. A pulsed Doppler spectrum was recorded and peak systolic, end-diastolic and time-average mean BFV were measured in the renal artery, with Doppler beam angle correction. To calculate cardiac output, spatial flow profiles were analyzed in parasternal long-axis B-mode images of the pulmonary artery and BFV were measured as above. The following formula was applied: CO=[(V^mean·60)·(π·(Dpa/2^2)], where CO is the cardiac output in ml/minute, V^mean is the mean time-averaged BFV in cm/s and Dpa is the pulmonary artery diameter in cm. Kidney sizes and BFV were determined by the same investigator, as means of 5 to 8 measurements. Repeatability for cardiac output measurements was verified. We controlled and confirmed that kidney size was similar between SAD and wild type mice. After sacrifice, kidneys were dissected, dehydrated, mounted in paraffin, sectioned and stained by Masson trichrome. Vascular congestion was observed by phase-contrast microscopy, as large erythrocyte aggregates occluding kidney capillaries and larger vessels. In some experiments, TSP1 (1 mg/kg) or control BSA (1 mg/kg) were injected. After 5 minutes, mice were terminally anesthetized by pentobarbital overdose. Whole blood was collected through cardiac puncture, centrifuged (400 g, 15 minutes) to eliminate erythrocytes and leukocytes, and double centrifuged (12500 g, 5 minutes) to eliminate platelets with minimal activation. Supernatants were considered platelet-free plasma (PFP). Circulating MP were quantified by FACS.
We evaluated the concept that TSP1 influences VOC during SCD in vivo. We used SAD transgenic mice that express a mutated human hemoglobin β-chain known to cause sickle cell formation and sensitivity to VOC (18, 19).

[3] = scanning electron microscopy, after peptide treatment
[4] = endothelial NOS blocked, L-NAME 100 μM, enantiomer D-NAME as control
[5] = endothelial PKC activity inhibited, 1 μM

With “4N1-1: Synthetic TSP1 carboxyterminal peptide RFYVVMWK (SEQ ID NO:1), CD47 agonist (4N1-1)” the “effects on circulating PS+ MP after injection of the peptide” value (SAD mice) was “comparable to whole TSP1”, the “echinocytosis: change in wild type echinocytes” value ([1]; peptide 25 μM) was “doubling” and the “spicule numbers in healthy wild type erythrocytes” value [1, 3] was “not in healthy wild type erythrocytes”. For the same molecule, the “effect on sickle cells” value (SAD mouse erythrocytes; SAD erythrocytes, TSP1 or peptide) was “did not affect sickle cells”, the “increase in spicule numbers in SAD RBC” value (SAD mouse erythrocytes; [3]) was 20% and the “increase in SAD echinocytes” value (SAD mouse erythrocytes; under shear, TSP1 (25 μg/ml) or peptide (25 μM), vs control) was 50%.

In the case of “4N1-2: Synthetic truncated control peptide RFYVVM (SEQ ID NO:2) (4N1-2)”, the “increase in MP shedding in wild type erythrocytes” value [1] is reported as “no effect” and the “raise in MP shedding in SAD erythrocytes” value (SAD mouse erythrocytes) is reported as “no effect”.

In the case of “4NGG: Mutated control peptide RFYGGMWK (SEQ ID NO:3) devoid of the VVM motif (4NGG)”, the “increase in MP shedding in wild type erythrocytes” value [1] is reported as “no effect” and the “raise in MP shedding in SAD erythrocytes” value (SAD mouse erythrocytes) is reported as “no effect”.

For `COC(=O)[C@H](N)CCCN=C(N)N[N+](=O)[O-]` [D-NAME], the “ROS generation induced by SAD RBC MP” value [2, 4] was “had no effects”.

`c1ccc2c(c1)[I+]c1ccccc1-2` [DPI] was tested, and the “ROS generation induced by SAD RBC MP” value ([2]; endothelial NADPH oxydase blocked, 10 μM, 30 minutes) was “prevented”.

For `Cn1c2ccccc2c2c3c(c4c5ccccc5n(CCC#N)c4c21)C(=O)NC3` [Gö-6976], the “ROS generation induced by SAD RBC MP” value [2, 5] was “prevented”.

`COC(=O)[C@@H](N)CCCNC(=N)N[N+](=O)[O-]` [L-NAME] was tested, and the “ROS generation induced by SAD RBC MP” value [2, 4] was “entirely inhibited”.

For `Cn1cc(C2=C(c3cn(CCCSC(=N)N)c4ccccc34)C(=O)NC2=O)c2ccccc21` [Ro-31-8220], the “ROS generation induced by SAD RBC MP” value [2, 5] was “prevented”.

For `CC1(C)CC(O)CC(C)(C)N1[O]` [Tempol], the “effect alone on vessel diameter” value (Mesenteric arteries; Tempol alone, vs control) was −5 % vessel diameter and the “reduction of the deleterious effects of SAD RBC MP on vasodilation” value (Mesenteric arteries; vessel treated 10 μM, 30 minutes, vs MP alone) was −50%.

`COc1cc(C(C)=O)ccc1O` [apocynin] was tested, and the “ROS generation induced by SAD RBC MP” value ([2]; endothelial NADPH oxydase blocked, 100 μM, 30 minutes) was “prevented”.

B1: annexin-V: Recombinant protein that binds externalized phosphatidylserine in a calcium dependent manner (protein, UniProt P08758 2-320, looked up)
Annexin A5: AQVLRGTVTDFPGFDERADAETLRKAMKGLGTDEESILTLLTSRSNAQRQEISAAFKTLFGRDLLDDLKSELTGKFEKLIVALMKPSRLYDAYELKHALKGAGTNEKVLTEIIASRTPEELRAIKQVYEEEYGSSLEDDVVGDTSGYYQRMLVVLLQANRDPDAGIDEAQVEQDAQALFQAGELKWGTDEEKFITIFGTRSVSHLRKVFDKYMTISGFQIEETIDRETSGNLEQLLLAVVKSIRSIPAYLAETLYYAMKGAGTDDHTLIRVMVSRSEIDLFNIRKEFRKNFATSLYSMIKGDTSGDYKKALLLLCGEDD
For B1, the “VOC parameters after injection of annexin-V-saturated SAD RBC MP” value (SAD transgenic mice) was “failed to modify VOC parameters”, the “VOC parameters after injection of annexin-V-saturated SAD RBC MP” value (SAD transgenic mice; listed as Annexin-V) was “abrogated the induction of VOC” and the “ROS generation induced by SAD RBC MP” value ([2]; MP PS previously saturated with recombinant annexin-V, 1 μg/ml for 1 hour) was “entirely inhibited; also recorded: prevented”.
